US8222284B2, “Stable formulations of thiadiazole derivative” (Eli Lilly and Company, priority 2007, dated 2012)

Experiments:
Type in all cases: physicochemical
[1] = Enantiomeric (chiral) stability of the compound in buffer solutions, chiral HPLC assay
Description: (§1) Stability for N-{4-(2,2-dimethyl-propionyl)-(5R)-5-[(2-ethylamino-ethanesulfonylamino)-methyl]-5-phenyl-4.5-dihydro-[1,3,4]thiadiazol-2-yl}-2,2-dimethyl-propionamide (the compound) is assessed at 0.1 mg/mL in various buffers adjusted from pH 2 through 8 with various pH adjusting agents (e.g. 0.1 and 1 N HCl; 0.1, 1, and 5 N NaOH) and at different storage conditions (e.g. 5° C., 25° C., and 40° C. at 75% relative humidity). Hereinafter, the 40° C. at 75% relative humidity storage condition will be referred to as 40° C. These buffers include 10 mM and 50 mM tartrate (40° C.), 10 mM phosphate (25 and 40° C.), 50 mM phosphate (40° C.), and 10 mM citrate (25 and 40° C. Additional solution stability studies include 10 mM citrate (pH 8; 5° C., 25° C., and 40° C.) and 10 mM NaCl, 10 mM sodium sulfate, 10 mM mesylate, 10 mM tartrate, 10 mM phosphate, and 10 mM citrate (pH 8, 40° C). Lyophilized stability studies for N-{4-(2,2-dimethyl-propionyl)-(5R)-5-[(2-ethylamino-ethanesulfonylamino)-methyl]-5-phenyl-4,5-dihydro-[1,3,4]thiadiazol-2-yl}- 2-dimethyl-propionamide involve solutions containing 10 mM tartrate buffer at pH 3 which are lyophilized and subjected to storage at 5° C., 25° C., and 40 ° C. for 1, 3, and 6 months. Finally, the enantiomeric stability for N-{4-(2,2-dimethyl-propionyl)-(5R)-5-[(2-ethylamino-ethanesulfonylamino-methyl]-5-phenyl-4,5-dihydro-[1,3,4]thiadiazol-2-yl}-2,2-dimethyl-propionamide is assessed when dissolved in various organic solvents and aqueous/solvent mixtures, including methanol, ethanol, acetonitrile, acetone, ethyl acetate, and 50% ethanol/50% water (all at 25° C. and 40° C.) and in 1-octanol (25° C.).
(§2) The enantiomeric stability is measured with a chiral HPLC assay employing polar ionic separation conditions. Those conditions include Column: Chirobiotic T, 150×4.6 mm; Detector UV, 290 nm; Flow: 0.225-0.35 mL/min., adjust to optimize chiral separation; injection: 2 μL-10 μL; Column Temperature: 45° C.; Mobile Phase: 0.01% TEA, 1.0% HOAc, 1.0% water (DIW) in methanol. Enantioselectivity is very sensitive to mobile phase composition, specifically the acid:base ratio. For this reason, the TEA and HOAc additives are accurately measured and then delivered by pipette into the mobile phase while stirring.

[2] = Lyophilized stability study (10 mM tartrate buffer pH 3, lyophilized and stored), chiral conversion
Description: as §1, §2

[3] = Enantiomeric stability when dissolved in organic solvents and aqueous/solvent mixtures
Description: as §1
The enantiomeric stability is measured with a chiral HPLC assay employing polar ionic separation conditions. […] For this reason, the TEA and HOAc additives are accurately measured and then delivered by pipette into the mobile phase while stirring.

CCNCCS(=O)(=O)NC[C@@]1(c2ccccc2)SC(NC(=O)C(C)(C)C)=NN1C(=O)C(C)(C)C [the compound, N-{4-(2,2-dimethyl-propionyl)-(5R)-5-[(2-ethylamino-ethanesulfonylamino)-methyl]-5-phenyl-4,5-dihydro-[1,3,4]thiadiazol-2-yl}-2,2-dimethyl-propionamide]
chiral conversion of the compound ([1]; 10 mM citrate buffer, pH 2.1, at least 96 hours, 40° C.): no chiral conversion
chiral conversion of the compound ([1]; 10 mM citrate buffer, pH 2.1, at least 120 hours, 25° C.): no chiral conversion
chiral conversion of the compound ([1]; 10 mM citrate buffer, pH 3.3, at least 96 hours, 40° C.): no chiral conversion
chiral conversion of the compound ([1]; 10 mM citrate buffer, pH 3.3, at least 120 hours, 25° C.): no chiral conversion
chiral conversion of the compound ([1]; 10 mM citrate buffer, pH 4.2, at least 96 hours, 40° C.): no chiral conversion
chiral conversion of the compound ([1]; 10 mM citrate buffer, pH 4.2, at least 120 hours, 25° C.): no chiral conversion
% of the compound remains ([1]; 10 mM citrate buffer, pH 8.4, 24 hours, 25° C.): 95.8%
% of the compound remains ([1]; 10 mM citrate buffer, pH 8.4, 120 hours, 5° C.): 99.3%
chiral conversion of the compound ([1]; 10 mM sodium phosphate buffer, pH 2.3, at least 120 hours, 25° C.): no chiral conversion
chiral conversion of the compound ([1]; 10 mM sodium phosphate buffer, pH 2.3, at least 120 hours, 40° C.): no chiral conversion
chiral conversion of the compound ([1]; 10 mM sodium phosphate buffer, pH 3.4, at least 120 hours, 25° C.): no chiral conversion
chiral conversion of the compound ([1]; 10 mM sodium phosphate buffer, pH 3.4, at least 120 hours, 40° C.): no chiral conversion
chiral conversion of the compound ([1]; 10 mM sodium phosphate buffer, pH 5.4, at least 120 hours, 25° C.): no chiral conversion
chiral conversion of the compound ([1]; 10 mM sodium phosphate buffer, pH 5.4, at least 120 hours, 40° C.): no chiral conversion
chiral conversion of the compound ([1]; 10 mM tartrate buffer, pH 2.1, at least 96 hours, 40° C., 0.1 mg/mL): no chiral conversion
chiral conversion of the compound ([1]; 10 mM tartrate buffer, pH 3.1, at least 96 hours, 40° C., 0.1 mg/mL): no chiral conversion
chiral conversion of the compound ([1]; 10 mM tartrate buffer, pH 4,1, at least 96 hours, 40° C., 0.1 mg/mL): no chiral conversion
% of the compound remains ([1]; 10 mM tartrate buffer, pH 6.2, 96 hours, 40° C.): 97.5%
% of the compound remains ([1]; 10 mM tartrate buffer, pH 8.7, 96 hours, 40° C.): 60.3%
chiral conversion of the compound ([1]; 50 mM phosphate buffer, pH 2.2, at least 96 hours, 40° C.): no chiral conversion
chiral conversion of the compound ([1]; 50 mM phosphate buffer, pH 3.3, at least 96 hours, 40° C.): no chiral conversion
chiral conversion of the compound ([1]; 50 mM phosphate buffer, pH 5.0, at least 96 hours, 40° C.): no chiral conversion
chiral conversion of the compound ([1]; 50 mM tartrate buffer, pH 2.0, at least 120 hours, 40° C., 0.1 mg/mL): no chiral conversion
chiral conversion of the compound ([1]; 50 mM tartrate buffer, pH 2.9, at least 120 hours, 40° C., 0.1 mg/mL): no chiral conversion
chiral conversion of the compound ([1]; 50 mM tartrate buffer, pH 3.9, at least 120 hours, 40° C., 0.1 mg/mL): no chiral conversion
% of the compound remains ([1]; citrate buffer, pH 6.2, 96 hours, 40° C.): 98.2%
% of the compound remains ([1]; citrate buffer, pH 6.2, 120 hours, 25° C.): 99.9%
chiral conversion of the compound ([2]; lyophilized formulation pH 3.0, 1 month, 5° C.): no chiral conversion
chiral conversion of the compound ([2]; lyophilized formulation pH 3.0, 1 month, 25° C.): no chiral conversion
chiral conversion of the compound ([2]; lyophilized formulation pH 3.0, 1 month, 40° C. (75% relative humidity)): no chiral conversion
chiral conversion of the compound ([2]; lyophilized formulation pH 3.0, 3 months, 5° C.): no chiral conversion
chiral conversion of the compound ([2]; lyophilized formulation pH 3.0, 3 months, 25° C.): no chiral conversion
chiral conversion of the compound ([2]; lyophilized formulation pH 3.0, 3 months, 40° C. (75% relative humidity)): no chiral conversion
chiral conversion of the compound ([2]; lyophilized formulation pH 3.0, 6 months, 5° C.): no chiral conversion
chiral conversion of the compound ([2]; lyophilized formulation pH 3.0, 6 months, 25° C.): no chiral conversion
chiral conversion of the compound ([2]; lyophilized formulation pH 3.0, 6 months, 40° C. (75% relative humidity)): no chiral conversion
stability / conversion to the S enantiomeric form, compared with the other solvents tested ([3]; in 50% ethanol/50% water (25° C. and 40° C.)): less stable
stability / conversion to the S enantiomeric form, compared with the other solvents tested ([3]; in acetonitrile (25° C. and 40° C.)): less stable
stability / conversion to the S enantiomeric form, compared with the other solvents tested ([3]; in ethyl acetate (25° C. and 40° C.)): less stable
